Measurements: patent US11517019B2, “Microbicidal system” (priority 2020, dated 2022)
“Also recorded” adds a separate entry of the source. Where two headings read alike, the source gives them in different places.

How the values were obtained:
Lp1 = assay type: cell-based, Legionella pneumophila; settings: ~9×10^6 CFU/mL
[1] = test system: gram-positive and gram-negative bacteria; settings: cited from earlier work
[2] = ambient temperature; third-party reports; cited from earlier work
[3] = Dissolution of CX powder in 140° F. municipal water
[4] = 50 mg CX powder in 1 liter 140° F. (60° C.) municipal water

[H]/N=C(\N/C(=N/[H])NCCCCCCNC(=N)NC(=N)Nc1ccc(Cl)cc1)Nc1ccc(Cl)cc1 [CX, N,N″″1,6-Hexanediylbis[N-(4-chlorophenyl) (imidodicarbonimidic diamide)]]
cell count reduction (Lp1; 4.5 g solid CX in 800 mL, first 30 seconds): ~0.3 log
cell count reduction (Lp1; 12 g solid CX in 800 mL, 2-minute reaction period): ~4.8 log
time of uptake into bacterial cells ([1]; aqueously dissolved form): ≤ 20 s
persistence of activity ([1]; bound to proteins on skin, mucosa, mouth tissue and teeth): ≥ 48 h
time to kill virtually all gram-positive and gram-negative bacteria ([1]; in vitro): ≤ 30 s
solubility in water [2]: ca. 80 mg/100 mL
saturation level of CX approached [3, 4]: ~1 mg/L
time to approach saturation level [3, 4]: ≤ 10 s
portion of the powder dissolved ([3]; 50 mg in 1 liter 140° F. water, up to 20 minutes of exposure): under 2 weight percent
chloroaniline (CA) isomers detectable in the water ([3]; CX in 140° F. water): no isomer of CA was detectable; also recorded: No chloroani line impurities were detectable
